The text below walks through data of patent US7750038B2, “Sulfonylated heterocycles useful for modulation of the progesterone receptor” (Wyeth LLC, priority 2007, dated 2010).

The first assay concerns alkaline phosphatase activity in T47D cells. The assay can be described thus: Effects of progestins and antiprogestins on alkaline phosphatase activity in T47D cells. Particulars: Homo sapiens, agonist mode, typical value of reference compound. It is filed as cell-based. As for the experimental part: Effects of Progestins and Antiprogestins on Alkaline Phosphatase Activity in T47D Cells
PURPOSE: To identify progestins or antiprogestins by determining a compound's effect on alkaline phosphatase activity in T47D cells.
Culture medium: DMEM:F12 (1:1) (GIBCO, BRL) supplemented with 5% (v/v) charcoal stripped fetal bovine serum (not heat-inactivated), 100 U/mL penicillin, 100 μg/mL streptomycin, and 2 mM the GlutaMax™ reagent (GIBCO, BRL).
Alkaline phosphatase assay buffer: • I. 0.1M Tris-HCl, pH 9.8, containing 0.2% the Triton® X-100 reagent • II. 0.1M Tris-HCl, pH 9.8, containing 4 mM p-nitrophenyl phosphate (Sigma).
Frozen T47D cells were thawed in a 37° C. water bath and diluted to 280,000 cells/mL in culture medium. To each well in a 96-well plate (Falcon, Becton Dickinson Labware), 180 μL of diluted cell suspension was added. Twenty μL of reference or test compounds diluted in the culture medium was then added to each well. When testing for progestin antagonist activity, reference antiprogestins or test compounds were added in the presence of 1 nM progesterone. The cells were incubated at 37° C. in a 5% CO2/humidified atmosphere for 24 hours. For high throughput screening, one concentration of each compound was tested at 0.3 μg/mL. Based on an average molecular weight of 300 g/mol for the compounds in the library, the concentration was approximately 1 μM. Subsequently, active compounds were tested in dose response assays to determine EC50 and IC50.
At the end of treatment, the medium was removed from the plate. Fifty μL of assay buffer I was added to each well. The plates were shaken in a titer plate shaker for 15 min. Then, 150 μL of assay buffer II was added to each well. Optical density measurements were taken at 5 min intervals for 30 min at a test wavelength of 405 nm.
For reference and test compounds, a dose response curve was generated for dose (X-axis) vs. the rate of enzyme reaction (slope) (Y-axis). Square root-transformed data were used for analysis of variance and nonlinear dose response curve fitting for both agonist and antagonist modes. Huber weighting was used to down-weight the effects of outliers. EC50 or IC50 values were calculated from the retransformed values. JMP software (SAS Institute, Inc.) is used for both one-way analysis of variance and non-4 linear dose response analysis in both single dose and dose response studies.
Progesterone and trimegestone are reference progestins known in the art and typically show an EC50 of about 0.1 nM to about 2.0 nM.
`CC(=O)[C@H]1CC[C@H]2[C@@H]3CCC4=CC(=O)CC[C@]4(C)[C@H]3CC[C@]12C` [Progesterone] displayed an EC50 of 0.1 to 2 nM.

Still in this assay, the particulars now being: Homo sapiens, antagonist mode, typical value of reference compound, read-out: IC50 of reference antiprogestin, alkaline phosphatase T47D.
Turning to `CC#C[C@]1(O)CC[C@H]2[C@@H]3CCC4=CC(=O)CCC4=C3[C@@H](c3ccc(N(C)C)cc3)C[C@@]21C` [RU486, reference compound], the IC50 lay within 0.1 to 2 nM.

Still in this assay, the particulars now being: Homo sapiens, progestin antagonist mode in the presence of 1 nM progesterone, 24 hours, read-out: Alkaline Phosphatase T47D IC50.
Turning to `CCS(=O)(=O)N1CCc2cc(-c3ccc(C#N)n3C)ccc21` [Example 4, 5-[1-(ethylsulfonyl)-2,3-dihydro-1H-indol-5-yl]-1-methyl-1H-pyrrole-2-carbonitrile], the IC50 amounted to 2.4 nM. In the case of `CCS(=O)(=O)N1CCc2cc(-c3ccc(C#N)n3C)cc(F)c21` [Example 8, 5-[1-(ethylsulfonyl)-7-fluoro-2,3-dihydro-1H-indol-5-yl]-1-methyl-1H-pyrrole-2-carbonitrile], the concentration for half-maximal inhibition (IC50) came out at 12.2 nM.

Regarding `CCS(=O)(=O)N1CC(C)(C)c2cc(-c3ccc(C#N)n3C)ccc21` [Example 3, 5-[1-(ethylsulfonyl)-3,3-dimethyl-2,3-dihydro-1H-indol-5-yl]-1-methyl-1H-pyrrole-2-carbonitrile], the IC50 worked out at 6.8 nM. On the same count and under the same terms, with `Cn1c(C#N)ccc1-c1ccc2c(c1)CCN2S(C)(=O)=O` [Example 1, 1-methyl-5-[1-(methylsulfonyl)-2,3-dihydro-1H-indole-5-yl]-1H-pyrrole-2-carbonitrile] the figure was 4.3 nM; with `Cn1c(C#N)ccc1-c1cc(F)c2c(c1)CCN2S(C)(=O)=O` [Example 7, 5-[7-fluoro-1-(methylsulfonyl)-2,3-dihydro-1H-indol-5-yl]-1-methyl-1H-pyrrole-2-carbonitrile], 11.1 nM; with `Cn1c(C#N)ccc1-c1ccc2c(c1)C(C)(C)CN2S(C)(=O)=O` [Example 2, 5-[3,3-dimethyl-1-(methylsulfonyl)-2,3-dihydro-1H-indol-5-yl]-1-methyl-1H-pyrrole-2-carbonitrile], 9.2 nM. Regarding `Cn1c(C#N)ccc1-c1ccc2c(c1)CCCN2S(C)(=O)=O` [Example 9, 1-methyl-5-[1-(methylsulfonyl)-1,2,3,4-tetrahydroquinolin-6-yl]-1H-pyrrole-2-carbonitrile], the IC50 was found to be 4.4 nM. Still for that read-out and setting: the same measure for `CC(C)S(=O)(=O)N1CCc2cc(-c3ccc(C#N)n3C)ccc21` [Example 5, 5-[1-(isopropylsulfonyl)-2,3-dihydro-1H-indol-5-yl]-1-methyl-1H-pyrrole-2-carbonitrile]: 4.9 nM; for `CCCS(=O)(=O)N1CCc2cc(-c3ccc(C#N)n3C)ccc21` [Example 6, 1-methyl-5-[1-(propylsulfonyl)-2,3-dihydro-1H-indol-5-yl]-1H-pyrrole-2-carbonitrile]: 2.3 nM; for `CCS(=O)(=O)N1CCCc2cc(-c3ccc(C#N)n3C)ccc21` [Example 10, 5-[1-(ethylsulfonyl)-1,2,3,4-tetrahydroquinolin-6-yl]-1-methyl-1H-pyrrole-2-carbonitrile]: 3.15 nM. Still for that read-out and setting: the same measure for `CCCS(=O)(=O)N1CCCc2cc(-c3ccc(C#N)n3C)ccc21` [Example 11, 1-methyl-5-[1-(propylsulfonyl)-1,2,3,4-tetrahydroquinolin-6-yl]-1H-pyrrole-2-carbonitrile]: 3.6 nM.

In general, EC50 refers to the midpoint of the concentration-response curve. A high value points to a less potent agent. What is called IC50 is the point on the concentration scale where inhibition reaches its midpoint.
